The values that follow come from US8609708B2 (Human BioMolecular Research Institute, priority 2003, dated 2013).

One may read the Ki as the dissociation constant of the complex between target and ligand, obtained from inhibition or displacement. The term IC50 denotes the point on the concentration scale where inhibition reaches its midpoint. By half-life is commonly meant how long it takes for the measured level to halve. Read a low half-life as fast loss. In general, inhibition refers to the change of the read-out against control, counted positive when it falls. The low end stands for a response near the control, the high end for a response far below the control.

In series [1] the target is T1, CYP2A13 (Homo sapiens (Human), UniProt Q16696). Conditions: cited from earlier work.
In series [2] the target is Acetylcholine Binding Protein (Lymnaea stagnalis (Great pond snail) (Helix stagnalis), UniProt P58154). Also noted: species or system Lymnaca stagnalis.
Another series concerns the target CYP2E1 (Homo sapiens (Human), UniProt P05181). Nature of the series: CYP2E1 Vivid blue substrate O-dealkylation inhibition. The format is biochemical.
The target in the next series is CYP2D6 (Homo sapiens (Human), UniProt P10635). Nature of the series: CYP2D6 Vivid blue substrate O-dealkylation inhibition. In kind it is biochemical.
A further series can be described thus: in vitro. Conditions: human, microsomes, pH 7.4.
A short description of series [3]: Mouse liver microsome stability assay. To be noted: mouse, microsomes, pH 7.4. On the technique in general: Liver microsomes are a subcellular fraction often used to study metabolism.
Protocol: The residue was reconstituted in methanol (200 μL), centrifuged at 13,000 rpm for 5 min and the supernatant was analyzed by high-performance liquid chromatography with an Axxi-chrom (straight-phase) silica column (4.6 mm×250 mm, 5 μm) or with a Supelco (reverse-phase) HS F5 pentafluorophenyl column (4.6 mm×250 mm, 5 μm).
Another series addresses P450 2A6dH (Homo sapiens (Human), UniProt P11509, INS494HHHH). Nature of the series: Difference spectra of test compounds with N-terminal truncated CYP2A6.
The target of the next series is Microsomal Human CYP2A6 (Homo sapiens (Human), UniProt P11509). In words: Microsomal human CYP2A6-mediated nicotine oxidase activity. The protocol: For each determination, cold microsomes (of predetermined CYP2A6 activity) was added to the NADPH-generating system containing 50 mM Tris (pH=7.4) and DETAPAC (to prevent metal-catalyzed autooxidation) and inhibitor. Because rat liver cytosol has little CYP2A6 activity and high levels of aldehyde oxidase, 0.2 mg/incubation was used to quantitatively convert the nicotine iminium ion to cotinine. […] For initial evaluation of a large number of samples, [^3]H-nicotine was used in a TLC/radiometric format. […] Quantification of scrapped bands was by scintillation counting.

In series [4] the target is T2, human CYP2A6 (Homo sapiens (Human), UniProt P11509). In words: CYP2A6 mediated coumarin 7-hydroxylation inhibition. Conditions: read-out: CYP2A6 IC50; coumarin 7-hydroxylation.
The target in series [5] is CYP3A4 relative to CYP2A6 (Homo sapiens (Human), UniProt P08684). In words: in vitro. To be noted: human.
The next series deals with male Wistar rats. Nature of the series: Nicotine self-administration in nicotine-addicted rats. In kind it is in vivo, rat.
The target of series [6] is T2, human CYP2A6. Conditions: for IC50: human, pH 7.5.
Series [7] concerns NNK-dependent tumorigenesis in mice. To be noted: mouse, in vivo; cited from earlier work.
For the next series, the target named is CYP3A4 (Homo sapiens (Human), UniProt P08684). Nature of the series: CYP3A4 inhibition assay (testosterone 6-hydroxylation).
Series [8] concerns the target T2, human CYP2A6. Nature of the series: biochemical.
The target of another series is mouse CYP2A5 (Mus musculus (Mouse), UniProt P20852). In words: Inhibition of mouse CYP2A5. The format is biochemical. To be noted: read-out: IC50 mCYP2A5.
For series [9], the target named is T1, CYP2A13. Nature of the series: in vitro.
The next series concerns the target CYP2B6 (Homo sapiens (Human), UniProt P20813). In words: CYP2B6 Vivid blue substrate O-dealkylation inhibition. The format is biochemical.
Another series deals with CYP2C9 (Homo sapiens (Human), UniProt P11712). Nature of the series: CYP2C9 Vivid blue substrate O-dealkylation inhibition. The format is biochemical.
Another series deals with CYP2C19 (Homo sapiens (Human), UniProt P33261). In words: CYP2C19 Vivid blue substrate O-dealkylation inhibition. The format is biochemical.
Series [10] addresses Ach binding protein (AchBP) (Lymnaea stagnalis (Great pond snail) (Helix stagnalis), UniProt P58154). Conditions: for binding to the AchBP (in words): fluorescence quenching; for AchBP: intrinsic fluorescence quenching, 20 nM AchBP.
Description: To examine the degree of interaction with the nicotinic acetylcholine receptor, we examined the binding interaction of the synthetic inhibitors with the Ach binding protein (AchBP) from the fresh water snail (Table 3).
The target in series [11] is T1, CYP2A13. Nature of the series: Inhibition of human CYP2A13. Conditions: human.

Like-named read-outs stand apart in the source and are kept apart here.

CYP3A4, sequence (P08684 whole entry): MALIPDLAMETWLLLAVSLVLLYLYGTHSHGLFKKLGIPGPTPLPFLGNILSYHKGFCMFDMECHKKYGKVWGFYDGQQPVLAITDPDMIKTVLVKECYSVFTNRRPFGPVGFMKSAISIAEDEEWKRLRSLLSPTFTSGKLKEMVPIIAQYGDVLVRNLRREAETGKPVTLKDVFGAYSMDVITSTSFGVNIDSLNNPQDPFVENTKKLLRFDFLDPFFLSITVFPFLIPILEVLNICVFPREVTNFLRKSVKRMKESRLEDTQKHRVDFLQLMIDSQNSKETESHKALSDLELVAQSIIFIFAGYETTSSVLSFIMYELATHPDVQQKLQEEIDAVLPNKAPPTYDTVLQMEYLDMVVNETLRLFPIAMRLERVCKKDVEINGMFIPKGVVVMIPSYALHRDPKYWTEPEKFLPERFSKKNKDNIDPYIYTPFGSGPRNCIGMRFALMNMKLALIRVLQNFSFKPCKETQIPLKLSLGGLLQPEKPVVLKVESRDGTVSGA
CYP2E1, sequence (P05181 whole entry): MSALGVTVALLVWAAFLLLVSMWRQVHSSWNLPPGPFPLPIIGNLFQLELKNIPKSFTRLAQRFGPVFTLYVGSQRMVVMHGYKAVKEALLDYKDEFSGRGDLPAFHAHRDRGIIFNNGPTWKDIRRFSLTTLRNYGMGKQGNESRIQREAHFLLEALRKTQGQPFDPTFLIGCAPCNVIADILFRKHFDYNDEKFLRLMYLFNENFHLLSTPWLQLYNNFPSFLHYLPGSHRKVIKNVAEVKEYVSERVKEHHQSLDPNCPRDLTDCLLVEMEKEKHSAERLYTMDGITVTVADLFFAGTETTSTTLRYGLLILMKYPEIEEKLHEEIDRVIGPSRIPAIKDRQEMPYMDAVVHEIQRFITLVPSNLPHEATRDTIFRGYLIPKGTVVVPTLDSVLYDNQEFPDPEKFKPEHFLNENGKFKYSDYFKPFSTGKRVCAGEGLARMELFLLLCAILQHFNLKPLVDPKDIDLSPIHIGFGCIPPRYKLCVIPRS
CYP2D6, sequence (P10635 whole entry): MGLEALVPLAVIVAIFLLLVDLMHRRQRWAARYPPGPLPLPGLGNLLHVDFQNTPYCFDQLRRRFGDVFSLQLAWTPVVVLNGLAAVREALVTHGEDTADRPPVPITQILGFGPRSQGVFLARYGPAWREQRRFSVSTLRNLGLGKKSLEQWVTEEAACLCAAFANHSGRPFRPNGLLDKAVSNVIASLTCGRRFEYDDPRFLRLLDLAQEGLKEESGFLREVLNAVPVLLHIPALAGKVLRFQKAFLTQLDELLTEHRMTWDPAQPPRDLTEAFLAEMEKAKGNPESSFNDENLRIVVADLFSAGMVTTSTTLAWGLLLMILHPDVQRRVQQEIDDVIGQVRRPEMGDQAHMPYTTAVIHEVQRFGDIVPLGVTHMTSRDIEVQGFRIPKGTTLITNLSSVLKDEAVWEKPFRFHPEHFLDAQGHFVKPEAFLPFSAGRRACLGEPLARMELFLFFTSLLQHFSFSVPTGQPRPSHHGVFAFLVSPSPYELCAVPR
T1 sequence (Q16696 whole entry): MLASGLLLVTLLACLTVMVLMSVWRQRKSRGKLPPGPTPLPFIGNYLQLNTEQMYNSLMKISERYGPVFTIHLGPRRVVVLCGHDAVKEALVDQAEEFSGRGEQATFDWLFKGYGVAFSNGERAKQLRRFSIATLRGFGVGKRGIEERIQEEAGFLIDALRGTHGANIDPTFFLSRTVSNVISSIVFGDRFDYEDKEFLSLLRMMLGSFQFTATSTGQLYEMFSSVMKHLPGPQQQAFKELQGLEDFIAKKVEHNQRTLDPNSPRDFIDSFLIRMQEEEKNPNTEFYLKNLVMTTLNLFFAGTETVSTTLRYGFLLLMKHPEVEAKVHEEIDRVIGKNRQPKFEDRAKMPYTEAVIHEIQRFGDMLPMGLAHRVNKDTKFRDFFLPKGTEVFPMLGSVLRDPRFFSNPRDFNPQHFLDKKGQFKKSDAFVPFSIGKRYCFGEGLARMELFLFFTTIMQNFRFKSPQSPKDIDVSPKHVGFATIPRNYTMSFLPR
Acetylcholine Binding Protein, sequence (P58154 20-229 limits assumed): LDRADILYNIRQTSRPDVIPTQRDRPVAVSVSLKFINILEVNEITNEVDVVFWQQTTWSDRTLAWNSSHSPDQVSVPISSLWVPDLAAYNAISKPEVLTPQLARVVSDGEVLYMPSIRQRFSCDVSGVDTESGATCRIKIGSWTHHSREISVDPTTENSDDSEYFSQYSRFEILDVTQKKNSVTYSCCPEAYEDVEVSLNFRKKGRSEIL
Ach binding protein (AchBP), sequence (P58154 20-229 limits assumed): as above
P450 2A6dH, sequence (P11509 other isoform, or with tags, fused parts or gaps 1-28 replaced by MAKKTS/ins HHHH behind 494): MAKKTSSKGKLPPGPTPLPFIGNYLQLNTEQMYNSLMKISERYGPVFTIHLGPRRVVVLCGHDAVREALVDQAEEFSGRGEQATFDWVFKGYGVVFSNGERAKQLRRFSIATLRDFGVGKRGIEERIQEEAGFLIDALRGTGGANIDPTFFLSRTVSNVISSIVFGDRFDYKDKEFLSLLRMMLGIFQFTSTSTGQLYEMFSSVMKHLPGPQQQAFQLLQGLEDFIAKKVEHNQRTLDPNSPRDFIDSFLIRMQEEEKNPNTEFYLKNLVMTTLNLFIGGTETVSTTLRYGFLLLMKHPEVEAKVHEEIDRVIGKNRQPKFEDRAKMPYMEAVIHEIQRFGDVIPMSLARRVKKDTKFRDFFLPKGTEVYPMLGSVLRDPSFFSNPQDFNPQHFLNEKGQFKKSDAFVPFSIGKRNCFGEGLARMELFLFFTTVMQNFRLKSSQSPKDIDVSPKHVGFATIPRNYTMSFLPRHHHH
Microsomal Human CYP2A6, sequence (P11509 whole entry): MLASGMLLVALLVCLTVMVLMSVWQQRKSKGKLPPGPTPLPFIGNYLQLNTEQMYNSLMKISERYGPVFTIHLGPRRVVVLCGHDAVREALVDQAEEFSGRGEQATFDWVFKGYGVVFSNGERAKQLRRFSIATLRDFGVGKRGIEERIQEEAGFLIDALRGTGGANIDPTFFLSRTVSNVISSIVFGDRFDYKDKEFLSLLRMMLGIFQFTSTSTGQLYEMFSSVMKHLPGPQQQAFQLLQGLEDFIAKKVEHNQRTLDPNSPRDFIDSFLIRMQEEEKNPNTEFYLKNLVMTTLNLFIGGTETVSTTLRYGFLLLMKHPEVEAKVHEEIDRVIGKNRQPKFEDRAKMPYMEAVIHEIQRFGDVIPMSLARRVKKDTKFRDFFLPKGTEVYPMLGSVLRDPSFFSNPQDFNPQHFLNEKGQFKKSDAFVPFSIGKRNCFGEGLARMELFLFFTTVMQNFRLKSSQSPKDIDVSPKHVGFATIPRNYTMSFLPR
T2 sequence (P11509 whole entry): as above
CYP3A4 relative to CYP2A6, sequence (P08684 whole entry): as the sequence (P08684 whole entry) above
CYP2B6, sequence (P20813 whole entry): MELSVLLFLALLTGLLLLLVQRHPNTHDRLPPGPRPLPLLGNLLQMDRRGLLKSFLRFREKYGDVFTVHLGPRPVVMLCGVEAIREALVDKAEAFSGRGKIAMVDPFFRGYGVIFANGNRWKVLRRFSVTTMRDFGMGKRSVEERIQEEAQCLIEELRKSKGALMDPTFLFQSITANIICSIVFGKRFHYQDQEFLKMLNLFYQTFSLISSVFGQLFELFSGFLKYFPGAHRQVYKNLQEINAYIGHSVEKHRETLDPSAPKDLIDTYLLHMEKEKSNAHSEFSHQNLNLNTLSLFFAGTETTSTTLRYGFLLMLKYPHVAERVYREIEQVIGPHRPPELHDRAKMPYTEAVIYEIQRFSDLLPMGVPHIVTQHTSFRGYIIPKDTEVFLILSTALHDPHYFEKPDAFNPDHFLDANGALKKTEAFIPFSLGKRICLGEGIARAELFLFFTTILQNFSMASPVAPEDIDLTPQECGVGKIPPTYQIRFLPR
mouse CYP2A5, sequence (P20852 whole entry): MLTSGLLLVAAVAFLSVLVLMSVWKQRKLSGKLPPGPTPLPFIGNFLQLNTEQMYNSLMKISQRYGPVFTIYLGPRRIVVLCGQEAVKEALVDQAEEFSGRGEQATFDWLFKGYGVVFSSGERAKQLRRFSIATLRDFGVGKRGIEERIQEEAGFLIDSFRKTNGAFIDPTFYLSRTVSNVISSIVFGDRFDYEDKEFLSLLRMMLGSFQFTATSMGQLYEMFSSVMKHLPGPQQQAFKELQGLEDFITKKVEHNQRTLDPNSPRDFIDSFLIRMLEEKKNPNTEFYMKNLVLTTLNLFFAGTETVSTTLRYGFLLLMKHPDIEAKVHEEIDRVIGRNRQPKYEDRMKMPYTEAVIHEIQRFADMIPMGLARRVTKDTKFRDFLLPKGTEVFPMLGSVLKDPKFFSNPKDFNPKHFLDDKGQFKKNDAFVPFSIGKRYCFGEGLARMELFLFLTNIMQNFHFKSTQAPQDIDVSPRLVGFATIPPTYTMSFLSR
CYP2C19, sequence (P33261 whole entry): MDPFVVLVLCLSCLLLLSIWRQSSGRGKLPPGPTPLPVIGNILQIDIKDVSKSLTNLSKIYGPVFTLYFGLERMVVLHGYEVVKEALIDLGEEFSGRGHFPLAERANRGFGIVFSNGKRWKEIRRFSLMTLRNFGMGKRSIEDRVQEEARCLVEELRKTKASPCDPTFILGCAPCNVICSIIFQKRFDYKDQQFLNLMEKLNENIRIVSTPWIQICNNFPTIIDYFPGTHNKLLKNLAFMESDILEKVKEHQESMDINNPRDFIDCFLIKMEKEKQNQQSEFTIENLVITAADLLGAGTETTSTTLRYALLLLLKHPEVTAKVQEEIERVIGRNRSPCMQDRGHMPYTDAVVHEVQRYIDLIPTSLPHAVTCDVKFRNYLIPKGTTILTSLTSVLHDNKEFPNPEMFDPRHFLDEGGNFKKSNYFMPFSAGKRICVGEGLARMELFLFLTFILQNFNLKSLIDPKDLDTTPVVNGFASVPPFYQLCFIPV
Protocol for P450 2A6dH: Subsequently, test compound (in 100% ethanol, 10 μM) was added to both the cuvettes. The maximal ethanol concentration used was 2%. The difference spectra were obtained after the system reached equilibrium (3 min). All spectra were recorded at 25° C.

In the case of `COc1c2occc2cc2ccc(=O)oc12` [methoxypsoralen (8-methoxypsoralen), 8-methoxypsoralen], the Ki at CYP2A13 [1] is 0.11 µM.

As for `NCc1ccc(-c2cccnc2)o1` [(5-(pyridin-3-yl)furan-2-yl)methanamine], the “% of Control” value in [2] was found to be 20%.

In the case of `NCc1ccc(-c2cccnc2)s1` [Compound 1a], the IC50 at CYP2E1 (Table 4, unit inferred, read-out: 2E1 IC50 ± SD) came out at 40.2 ± 18.1 µM. The IC50 on CYP2D6 (Table 4, unit inferred, read-out: 2D6 IC50 ± SD) came to 169 ± 17 µM. The half-life in the series “in vitro” came out at 39 min. Besides, the half-life at 40 μM in [3] worked out at 60 min. For the same compound, on P450 2A6dH (difference spectrum), the λmax is 428 nm and the λmin is reported as 409 nm. Moreover, the binding type result on P450 2A6dH (difference spectrum with truncated CYP2A6) was “Type II”.

Regarding `CCC1CCC(c2cccnc2)O1` (centres unmarked) [Compound 44], the IC50 at Microsomal Human CYP2A6 came to 0.02 ± 0.02 µM; on human CYP2A6 [4] it was 13.6 ± 3.48 µM. Moreover, the “inhibition of microsomal nicotine oxidase (in words)” value on Microsomal Human CYP2A6 is “quite potent”.

With `NCc1ccc(-c2cccnc2)o1` [Compound 2], in series [5] (pH 7.5), the selectivity ratio at 30 min turned out to be 174. For the same compound, the “in vivo activity against nicotine self-administration (in words)” value with male Wistar rats (nicotine addicted rats) is given as “significant in vivo activity”. Further, the “decrease of nicotine self-administration” value in the series with male Wistar rats (rat, day 50, dihydrochloride salts in sterile saline, compound 2 16 mg/kg, compound 14 15 mg/kg) is 70%. On human CYP2A6 [6], the “CYP2A6 inhibition (in words)” value was “significant inhibition” and half-maximal inhibition (IC50) was put at 0.268 ± 0.021 µM.

`COc1c2occc2cc2ccc(=O)oc12` [methoxsalen (9-methoxypsoralen), 9-methoxypsoralen]: the “NNK-dependent tumorigenesis in mice (in words)” value in series [7] was “strongly inhibited”.

Take `CN1CCCC1c1cccnc1` (centres unmarked) [Compound 54]: the results for the IC50 against CYP3A4 and against human CYP2A6 [8] were 142 ± 15.7 µM and 26.3 ± 3.4 µM, respectively. Besides, the selectivity ratio in series [5] (pH 7.5, Selectivity Ratio: IC50 (Inhibition of CYP3A4)/IC50 (Inhibition of CYP2A6)) was 5.

For the compound `c1cncc(-c2ccsc2)c1` [TD-I-145], the IC50 at mouse CYP2A5 was 0.8 µM; on human CYP2A6 [6] it was 1.37 ± 0.23 µM. Further, the inhibition at 1 µM against CYP2A13 [9] came out at 12%.

On to `NC1CC1c1cccnc1` (centres unmarked) [2-(pyridin-3-yl)cyclopropanamine], for which the “% of Control” value in [2] turned out to be 8%.

`NCC1CCC(c2cccnc2)O1` (racemic) [Compound 38]: the IC50 was 77.5 ± 14.6 µM on CYP3A4 (human, microsomes, pH 7.5); 77.5 ± 14.6 µM on CYP2E1 (read-out: IC50 ± SD 2E1, insect cell microsomes expressing CYP2E1, 0.2M potassium phosphate buffer, mean of at least 3 determinations ± SD); 256 ± 29 µM on CYP2B6 (read-out: IC50 ± SD 2B6, insect cell microsomes expressing CYP2B6, 0.2M potassium phosphate buffer, mean of at least 3 determinations ± SD); 208 ± 21 µM on CYP2C9 (read-out: IC50 ± SD 2C9, insect cell microsomes expressing CYP2C9, 0.2M potassium phosphate buffer, mean of at least 3 determinations ± SD); 233 ± 21 µM at CYP2C19 (read-out: IC50 ± SD 2C19, insect cell microsomes expressing CYP2C19, 0.2M potassium phosphate buffer, mean of at least 3 determinations ± SD); 197 ± 21 µM at CYP2D6 (read-out: IC50 ± SD 2D6, insect cell microsomes expressing CYP2D6, 0.2M potassium phosphate buffer, mean of at least 3 determinations ± SD). This compound came in with an IC50 at Microsomal Human CYP2A6 of 5.21 ± 1.68 µM. Further, the “Selectivity ratio (IC50 CYPX/IC50 CYP2A6) 3A4/2A6” value at CYP3A4 (human, pH 7.5) was 21. The “Selectivity ratio (IC50 CYPX/IC50 CYP2A6) 2E1/2A6” value at CYP2E1 (human CYP2E1 versus human CYP2A6) is on record as 21. For the same compound, the “Selectivity ratio (IC50 CYPX/IC50 CYP2A6) 2B6/2A6” value at CYP2B6 (human CYP2B6 versus human CYP2A6) turned out to be 69. Besides, the “Selectivity ratio (IC50 CYPX/IC50 CYP2A6) 2C9/2A6” value on CYP2C9 (human CYP2C9 versus human CYP2A6) turned out to be 56. Also, the “Selectivity ratio (IC50 CYPX/IC50 CYP2A6) 2C19/2A6” value on CYP2C19 (human CYP2C19 versus human CYP2A6) is reported as 62. The “Selectivity ratio (IC50 CYPX/IC50 CYP2A6) 2D6/2A6” value at CYP2D6 (human CYP2D6 versus human CYP2A6) was 53. Besides, the “binding to the AchBP (in words)” value in series [10] was “modest binding avidity”. For the same compound, the AchBP entry in series [10] is “+”. For the same compound, the “CYP2A6 inhibition (in words)” value on human CYP2A6 [6] is given as “significantly diminished”.

`O/N=C/c1ccc(-c2cccnc2)o1` [TD-II-065 ESP trans isomer] showed an IC50 on human CYP2A6 [6] of 4.24 ± 0.49 µM. In addition, the inhibition at 1 µM against CYP2A13 [9] turned out to be 41%.

For `c1cncc(-c2ccc(CNCc3ccc(-c4cccnc4)s3)s2)c1` [bis((5-(pyridin-3-yl)thiophen-2-yl)methyl)amine], the “% of Control” value in [2] turned out to be 10%.

On to `CNCC#Cc1cccnc1` [TD-IV-091 41], for which, at CYP2A13 [9], the inhibition at 1 µM worked out at 2%.

As for `O/N=C/c1ccc(-c2cccnc2)o1` [Compound 39], the IC50 against CYP3A4 (human, pH 7.5) was more than 400 µM; against human CYP2A6 [8] it was 9.75 ± 0.91 µM.

Turning to `OCC1CCC(c2cccnc2)O1` (centres unmarked) [Compound 69], in series [10], the “binding to the AchBP (in words)” value is reported as “non-binders” and the AchBP result is reported as “−”. Moreover, the IC50 at human CYP2A6 [4] was 61.4 ± 17.7 µM.

Consider `NCc1ccc(-c2cccnc2)o1` [TD-II-063], for which the IC50 on mouse CYP2A5 was 0.6 µM. On CYP2A13 [9], this compound came in with an inhibition at 1 µM of 29%.

In turn, `CC(=O)SCc1ccc(-c2cccnc2)o1` [TD-V-099] registered an IC50 at human CYP2A6 [8] of 1.8 ± 0.3 µM. The inhibition at 1 µM against CYP2A13 [11] is 13%.

In turn, `CN1CCCC1c1cccnc1` (centres unmarked) [Compound 54, Nicotine] showed a Ki at human CYP2A6 [8] of 4.4 ± 0.6 µM.

`BrCC1CCC(c2cccnc2)O1` (centres unmarked) [Compound 32]: the IC50 on Microsomal Human CYP2A6 was 0.36 ± 0.18 µM.
